Measurements: US20130023491A1, “BETA-CELL REPLICATION PROMOTING COMPOUNDS AND METHODS OF THEIR USE” (President and Fellows of Harvard College, priority 2009, published 2013)

System: β-cells
Assay: β-cell replication by phosphohistone-H3 (PH3) and PDX-1 co-expression
Format: cell-based, rat
Settings: A10 2 μM, B8 15 μM
Protocol: Rat islets were isolated as previously described in Gotoh M, Maki T, Kiyoizumi T, Satomi S, Monaco A P: An improved method for isolation of mouse pancreatic islets. Transplantation 40:437-438, 1985, contents of which are herein incorporated by reference in their entirety. Isolated islets were cultured overnight in a tissue culture incubator. The following morning, islets were trypsinized into cellular clusters of 1-3 cells, re-suspended in islet media (Mediatech 99-786-CV; 10% FBS serum (Valley Biomedial BS3033); 8.3 mM Glucose (Sigma G7528); 1× Penicillin/Streptomycin (Invitrogen 15070-063); 1× Glutamax (Invitrogen 35050-079)) and plated into the wells of a 96-well plate (Sigma CLS3904) that had been coated with 804G (a rat bladder carcinoma cell line) conditioned media. The cellular plating density was 60 k cells/well and greater than 95% viability was confirmed at the time of plating. The islet cells were allowed 48-hours to adhere at which time the media was changed (Mediatech 99-786-CV 2% serum, 5 mM glucose, 1× pen/strep, 1× glutamax) and the cells were treated with the test compounds. For screening, compounds were tested at 1 uM concentration in duplicate. After 24-hours of compound treatment, cells were fixed with fresh 4% PFA (Electron Microscopy Services 15710) for 20 minutes and washed with PBS (VWR 45000-446). […]

Nc1ncnc2c1c(I)cn2[C@@H]1O[C@H](CO)[C@@H](O)[C@H]1O [A10, 5-iodotubercidin]
ratio of PH3 over PDX-1 relative to control DMSO treatment: increased
